Data on one molecule can be found in patent US20240269050A1, “ELECT[…] FOR DELIVERING A COMPOSITION COMPRISING AT LEAST ONE HYDROXY ACID COMPOUND” (L'OREAL, priority 2021, published 2024).

For the data set the following is noted: composition applied with electroporation (Fusion Meso Xpert, ftrain 0.4 Hz, negative polarity) compared with topical application of an identical composition; human skin sample; FIG. 5.

From the text: To test the effect of the device, a sample of human skin is peripherally attached to a support, with the counterelectrode of the electroporation device placed between the inner face of the skin and the support. The electrode of the electroporation device is placed in contact with the outer face of the skin sample. The case of the electroporation device is immobilized by a support. The support is placed on an orbital shaker, so that the electrode moves over the surface of the skin.
The frequency (ftrain) with which the pulse trains follow each other is 0.4 Hz, the duration Ton ranges from 0.5 to 2 seconds, and the chosen polarity is negative, i.e. the electrode is at a negative potential with respect to the counterelectrode. The apparatus is used in the highest energy mode. […] The pulses of frequency fpulse are, for example, of maximum amplitude deltaV, within the pulse train, this amplitude deltaV being less than or equal to 30% of the voltage Vmean, as an absolute value.
The cosmetic compositions are applied before the apparatus is put in place.
Firstly, compositions 1 to 3 are applied topically, and secondly, the application of compositions 1 to 3 is combined with electroporation.
The skin is removed from the experimental system and then analysed to determine the amount of salicylic acid that has penetrated.

Consider `O=C(O)c1ccccc1O` [salicylic acid], for which the “amount of salicylic acid that has penetrated” value is recorded as “much higher”.
